Reference: patent US20180000085A1, “USE OF PICOLINAMIDE COMPOUNDS WITH FUNGICIDAL ACTIVITY” (DOW AGROSCIENCES LLC, priority 2014, published 2018)

What was measured:
Type in all cases: in vivo
Conditions in all cases: 100 ppm, 1 Day Protectant
Rhyncosporium secalis = assay: Barley scald (RHYNSE) disease control; set-up: key: A: > 80; B: ≤ 80; C: Not Tested; D: No Activity Observed in the Reported Assay
Description: All fungicides were evaluated using the aforementioned method for their activity vs. all target diseases, unless stated otherwise. Wheat leaf blotch and brown rust activity were also evaluated using track spray applications, in which case the fungicides were formulated as EC formulations, containing 0.1% Trycol 5941 in the spray solutions. Wheat plants (variety Yuma) were grown from seed in a greenhouse in 50% mineral soil/50% soil-less Metro mix until the first leaf was fully emerged, with 7-10 seedlings per pot. These plants were inoculated with an aqueous spore suspension of Zymoseptoria tritici either prior to or after fungicide treatments. After inoculation the plants were kept in 100% relative humidity (one day in a dark dew chamber followed by two to three days in a lighted dew chamber at 20° C.) to permit spores to germinate and infect the leaf. The plants were then transferred to a greenhouse set at 20° C. for disease to develop. When disease symptoms were fully expressed on the 1st leaves of untreated plants, infection levels were assessed on a scale of 0 to 100 percent disease severity. Percent disease control was calculated using the ratio of disease severity on treated plants relative to untreated plants. Example H: Evaluation of Fungicidal Activity: Barley Scald (Rhyncosporium secalis; Bayer Code […]) Barley seedlings (variety Harrington) were propagated in soil-less Metro mix, with each pot having 8 to 12 plants, and used in the test when first leaf was fully emerged. Test plants were inoculated by an aqueous spore suspension of Rhyncosporium secalis 24 hr after fungicide treatments. After inoculation the plants were kept in a dew room at 22° C. with 100% relative humidity for 48 hr. The plants were then transferred to a greenhouse set at 20° C. for disease to develop. Fungicide formulation, application and disease assessment on the sprayed leaves followed the procedures as described in the Example A.

[1] = test system: Colletotrichum lagenarium; assay: Cucumber anthracnose (COLLLA) disease control
Description: All fungicides were evaluated using the aforementioned method for their activity vs. all target diseases, unless stated otherwise. Wheat leaf blotch and brown rust activity were also evaluated using track spray applications, in which case the fungicides were formulated as EC formulations, containing 0.1% Trycol 5941 in the spray solutions. Wheat plants (variety Yuma) were grown from seed in a greenhouse in 50% mineral soil/50% soil-less Metro mix until the first leaf was fully emerged, with 7-10 seedlings per pot. These plants were inoculated with an aqueous spore suspension of Zymoseptoria tritici either prior to or after fungicide treatments. After inoculation the plants were kept in 100% relative humidity (one day in a dark dew chamber followed by two to three days in a lighted dew chamber at 20° C.) to permit spores to germinate and infect the leaf. The plants were then transferred to a greenhouse set at 20° C. for disease to develop. When disease symptoms were fully expressed on the 1st leaves of untreated plants, infection levels were assessed on a scale of 0 to 100 percent disease severity. Percent disease control was calculated using the ratio of disease severity on treated plants relative to untreated plants. Example K: Evaluation of Fungicidal Activity: Cucumber Anthracnose (Colletotrichum lagenarium; Bayer Code COLLLA) Cucumber seedlings (variety Bush Pickle) were propagated in soil-less Metro mix, with each pot having one plant, and used in the test when 12 to 14 days old. Test plants were inoculated with an aqueous spore suspension of Colletotrichum lagenarium 24 hr after fungicide treatments. After inoculation the plants were kept in a dew room at 22° C. with 100% relative humidity for 48 hr to permit spores to germinate and infect the leaf. The plants were then transferred to a growth room set at 22° C. for disease to develop. Fungicide formulation, application and disease assessment on the sprayed leaves followed the procedures as described in the Example A.

Erysiphe cichoracearum = assay: Powdery mildew of cucumber (ERYSCI) disease control
Description: All fungicides were evaluated using the aforementioned method for their activity vs. all target diseases, unless stated otherwise. Wheat leaf blotch and brown rust activity were also evaluated using track spray applications, in which case the fungicides were formulated as EC formulations, containing 0.1% Trycol 5941 in the spray solutions. Wheat plants (variety Yuma) were grown from seed in a greenhouse in 50% mineral soil/50% soil-less Metro mix until the first leaf was fully emerged, with 7-10 seedlings per pot. These plants were inoculated with an aqueous spore suspension of Zymoseptoria tritici either prior to or after fungicide treatments. After inoculation the plants were kept in 100% relative humidity (one day in a dark dew chamber followed by two to three days in a lighted dew chamber at 20° C.) to permit spores to germinate and infect the leaf. The plants were then transferred to a greenhouse set at 20° C. for disease to develop. When disease symptoms were fully expressed on the 1st leaves of untreated plants, infection levels were assessed on a scale of 0 to 100 percent disease severity. Percent disease control was calculated using the ratio of disease severity on treated plants relative to untreated plants. […] Plants were inoculated with a spore suspension 24 hr following fungicide treatments. After inoculation the plants remained in the greenhouse set at 20° C. until disease was fully expressed. Fungicide formulation, application and disease assessment on the sprayed leaves followed the procedures as described in the Example A.

Compound | RHYNSE disease control, 1DP (Rhyncosporium secalis) | COLLLA disease control, 1DP [1] | ERYSCI disease control, 1DP (Erysiphe cichoracearum)
CCCOC(CC)C(Oc1ccccc1)C(C)OC(=O)C(C)NC(=O)c1nccc(OC)c1OCOC(C)=O (centres unmarked) [Cmpd 446] | B (≤ 80) | B (≤ 80) | –
COc1ccnc(C(=O)N[C@@H](C)C(=O)O[C@@H](C)[C@H](Oc2ccccc2)C(C)C)c1OCOC(C)=O [Cmpd 475] | B (≤ 80) | A (> 80) | B (≤ 80)
CC[C@@H](CCOC)[C@@H](Oc1ccccc1)[C@H](C)OC(=O)[C@H](C)NC(=O)c1nccc(OC)c1OCOC(C)=O [Cmpd 476] | B (≤ 80) | B (≤ 80) | B (≤ 80)
CCC(CC)[C@@H](Oc1ccccc1)[C@H](C)OC(=O)[C@H](C)NC(=O)c1nccc(OC)c1OCOC(C)=O [Cmpd 477] | B (≤ 80) | A (> 80) | A (> 80)
COc1ccnc(C(=O)N[C@@H](C)C(=O)O[C@@H](C)[C@H](Oc2ccccc2)C(C)C)c1OC(C)=O [Cmpd 478] | B (≤ 80) | B (≤ 80) | B (≤ 80)
CCC(CC)[C@@H](Oc1ccccc1)[C@H](C)OC(=O)[C@H](C)NC(=O)c1nccc(OC)c1OC(C)=O [Cmpd 479] | B (≤ 80) | A (> 80) | A (> 80)
CC[C@@H](CCOC)[C@@H](Oc1ccccc1)[C@H](C)OC(=O)[C@H](C)NC(=O)c1nccc(OC)c1OC(C)=O [Cmpd 482] | – | A (> 80) | B (≤ 80)
COc1ccnc(C(=O)N[C@@H](C)C(=O)O[C@@H](C)[C@H](Oc2ccccc2)c2ccccc2)c1OCOC(C)=O [Cmpd 500] | A (> 80) | A (> 80) | –
COc1ccnc(C(=O)N[C@@H](C)C(=O)O[C@@H](C)[C@H](Oc2ccccc2)C2CCCC2)c1OCOC(C)=O [Cmpd 556] | B (≤ 80) | A (> 80) | –
COc1ccnc(C(=O)N[C@@H](C)C(=O)O[C@@H](C)[C@H](Oc2cccc(Cl)c2)C(C)C)c1OC(C)=O [Cmpd 566] | A (> 80) | A (> 80) | –
COc1ccnc(C(=O)N[C@@H](C)C(=O)O[C@@H](C)[C@H](Oc2cccc(F)c2)c2ccccc2)c1OCOC(C)=O [Cmpd 574] | A (> 80) | A (> 80) | –
CCC(CC)[C@@H](Oc1ccc(F)cc1)[C@H](C)OC(=O)[C@H](C)NC(=O)c1nccc(OC)c1OCOC(C)=O [Cmpd 587] | B (≤ 80) | A (> 80) | –
COc1ccnc(C(=O)N[C@@H](C)C(=O)O[C@@H](C)[C@H](Oc2cc(F)cc(Cl)c2)C(C)C)c1OCOC(C)=O [Cmpd 617] | B (≤ 80) | A (> 80) | –
COc1ccnc(C(=O)N[C@@H](C)C(=O)O[C@@H](C)[C@H](Oc2cccc(Cl)c2)c2ccccc2)c1OCOC(C)=O [Cmpd 637] | D | B (≤ 80) | –
COc1ccnc(C(=O)N[C@@H](C)C(=O)O[C@@H](C)[C@H](Oc2ccccc2Cl)c2ccccc2)c1OC(C)=O [Cmpd 640] | B (≤ 80) | A (> 80) | –
COc1ccnc(C(=O)N[C@@H](C)C(=O)O[C@@H](C)[C@H](Oc2cc(F)cc(Cl)c2)c2ccccc2)c1OC(C)=O [Cmpd 642] | A (> 80) | A (> 80) | –
CCC(C)C(Oc1ccccc1)C(C)OC(=O)C(C)NC(=O)c1nccc(OC)c1OC(C)=O (centres unmarked) [Cmpd 691] | B (≤ 80) | A (> 80) | –
CCC(C)C(Oc1ccccc1)C(C)OC(=O)C(C)NC(=O)c1nccc(OC)c1OCOC(C)=O (centres unmarked) [Cmpd 692] | A (> 80) | A (> 80) | –
C=CC(C)C(Oc1ccccc1)C(C)OC(=O)C(C)NC(=O)c1nccc(OC)c1OCOC(C)=O (centres unmarked) [Cmpd 694] | B (≤ 80) | A (> 80) | –
CCC[C@@H](Oc1ccccc1)[C@H](C)OC(=O)[C@H](C)NC(=O)c1nccc(OC)c1OCOC(C)=O [Cmpd 699] | B (≤ 80) | A (> 80) | –
COc1ccnc(C(=O)N[C@@H](C)C(=O)O[C@@H](C)[C@@H](CC(C)C)Oc2ccccc2)c1OCOC(=O)C(C)C [Cmpd 1101] | A (> 80) | A (> 80) | –
